target: human NaV 1.8 (Homo sapiens, UniProt Q9Y5Y9); assay: E-VIPR assay detecting and measuring NaV inhibition properties; format: cell-based; conditions: HEK cells expressing truncated human NaV 1.8; in the presence of human serum (compound numbers followed by *); read-out: IC50 in the E-VIPR Assay, performed in the presence of human serum
Outline: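 HEK cells expressing truncated, fully active human NaV1.8, with KIR2.1 BacMam co-transduction, were loaded with CC2-DMPE/DiSBAC6(3) voltage-sensing dyes for 20 min at room temperature. Compounds were tested in 11-point 3-fold dilutions (300 nM top final), optionally with 25% human serum, under electrical stimulation with FRET read-out.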

Sequence of human NaV 1.8 (Q9Y5Y9 126-399 limits assumed): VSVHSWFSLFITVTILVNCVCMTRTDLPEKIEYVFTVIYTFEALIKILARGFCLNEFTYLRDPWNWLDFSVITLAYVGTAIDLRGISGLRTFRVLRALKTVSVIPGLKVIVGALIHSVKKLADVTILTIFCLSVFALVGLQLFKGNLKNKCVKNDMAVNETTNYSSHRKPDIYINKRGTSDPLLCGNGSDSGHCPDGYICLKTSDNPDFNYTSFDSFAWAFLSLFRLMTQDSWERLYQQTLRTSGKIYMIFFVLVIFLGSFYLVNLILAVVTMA
Sequence of human NaV 1.8 (Q9Y5Y9 660-890 limits assumed): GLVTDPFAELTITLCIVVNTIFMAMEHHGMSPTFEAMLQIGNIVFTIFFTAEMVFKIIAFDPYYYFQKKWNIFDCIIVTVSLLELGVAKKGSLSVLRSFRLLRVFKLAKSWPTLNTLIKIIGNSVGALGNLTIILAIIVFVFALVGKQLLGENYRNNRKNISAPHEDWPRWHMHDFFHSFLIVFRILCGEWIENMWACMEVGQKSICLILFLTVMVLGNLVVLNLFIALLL
Sequence of human NaV 1.8 (Q9Y5Y9 1148-1722 limits assumed): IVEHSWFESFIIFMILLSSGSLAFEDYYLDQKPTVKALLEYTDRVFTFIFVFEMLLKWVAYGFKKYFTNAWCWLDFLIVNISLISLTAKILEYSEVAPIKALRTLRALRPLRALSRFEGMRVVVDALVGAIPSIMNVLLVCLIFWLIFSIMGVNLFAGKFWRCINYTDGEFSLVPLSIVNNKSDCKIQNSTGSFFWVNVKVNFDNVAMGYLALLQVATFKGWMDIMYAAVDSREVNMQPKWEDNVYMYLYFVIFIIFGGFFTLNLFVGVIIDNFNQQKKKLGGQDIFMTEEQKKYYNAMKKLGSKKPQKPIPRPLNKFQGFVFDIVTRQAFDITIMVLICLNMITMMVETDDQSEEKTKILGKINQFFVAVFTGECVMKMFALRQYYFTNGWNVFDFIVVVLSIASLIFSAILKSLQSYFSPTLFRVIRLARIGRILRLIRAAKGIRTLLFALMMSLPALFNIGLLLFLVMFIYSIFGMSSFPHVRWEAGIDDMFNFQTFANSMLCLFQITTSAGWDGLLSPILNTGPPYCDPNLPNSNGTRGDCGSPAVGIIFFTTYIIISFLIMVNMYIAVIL

| Compound | IC50 |
| --- | --- |
| C[C@@H]1[C@H](c2ccc(F)c(F)c2OC(F)F)[C@@H](C(=O)Nc2ccnc(CCO)c2)O[C@]1(C)C(F)(F)F (single isomer, unassigned) [Compound 457] | ≥ 1000 nM |
| COc1c(C2CC(C)(C(F)(F)F)OC2C(=O)Nc2ccnc(C(O)C(C)O)c2)ccc(F)c1F (single isomer, unassigned) [Compound 697] | ≥ 1000 nM |
| COc1c([C@@H]2[C@@H](C(=O)Nc3cc[n+]([O-])c(C(O)CO)c3)O[C@](C)(C(F)(F)F)[C@@H]2C)ccc(F)c1C (relative stereo) [Compound 138, rel-2-(1,2-dihydroxyethyl)-4-((2S,3R,4R,5S)-3-(4-fluoro-2-methoxy-3-methylphenyl)-4,5-dimethyl-5-(trifluoromethyl)tetrahydrofuran-2-carboxamido)pyridine 1-oxide] | ≥ 1000 nM |
| COc1c(C2C(C(=O)Nc3ccn(C)c(=O)c3)OC(C)(C(F)(F)F)C2C)ccc(F)c1F (single isomer, unassigned) [Compound 27, 3-(3,4-difluoro-2-methoxy-phenyl)-4,5-dimethyl-N-(1-methyl-2-oxo-4-pyridyl)-5-(trifluoromethyl)tetrahydrofuran-2-carboxamide] | ≥ 1000 nM |
| COc1c(C2C(C(=O)Nc3ccnc(C(O)CO)c3)OC(C)(C)C2C)ccc(F)c1F (single isomer, unassigned) [Compound 722, rel-3-(3,4-difluoro-2-methoxyphenyl)-N-(2-(1,2-dihydroxyethyl)pyridin-4-yl)-4,5,5-trimethyltetrahydrofuran-2-carboxamide] | ≥ 1000 nM |

same assay, conditions: HEK cells expressing truncated human NaV 1.8; no human serum; read-out: IC50 in the E-VIPR Assay

| Compound | IC50 |
| --- | --- |
| C[C@H]1[C@@H](c2ccc(F)c(F)c2O[C@H]2C[C@@H](O)C2)[C@H](C(=O)Nc2ccn(C)c(=O)c2)O[C@@]1(C)C(F)(F)F [Compound 663, (2R,3S,4S,5R)-3-(3,4-difluoro-2-((1S,3R)-3-hydroxycyclobutoxy)phenyl)-4,5-dimethyl-N-(1-methyl-2-oxo-1,2-dihydropyridin-4-yl)-5-(trifluoromethyl)tetrahydrofuran-2-carboxamide] | 10 to 100 nM |
| COc1c([C@H]2[C@H](C(=O)NC3CCN(C(C)=O)C3)O[C@@](C)(C(F)(F)F)[C@H]2C)ccc(F)c1F (stereo partly drawn) [Compound 298, (2R,3S,4S,5R)-N-(1-acetylpyrrolidin-3-yl)-3-(3,4-difluoro-2-methoxyphenyl)-4,5-dimethyl-5-(trifluoromethyl)tetrahydrofuran-2-carboxamide] | ≥ 1000 nM |
| C[C@H]1[C@@H](c2ccc(F)c(F)c2OC(F)F)[C@H](C(=O)Nc2ccnc(CCO)c2)O[C@@]1(C)C(F)(F)F (single isomer, unassigned) [Compound 458] | < 10 nM |
| CC(C)Oc1c([C@@H]2[C@@H](C(=O)Nc3ccnc(S(C)(=N)=O)c3)O[C@](C)(C(F)(F)F)[C@@H]2C)ccc(F)c1F (single isomer, unassigned) [Compound 118] | ≥ 1000 nM |
| COc1c([C@@H]2[C@@H](C(=O)Nc3ccc(C(N)=O)nc3)O[C@](C)(C(F)(F)F)[C@@H]2C)cccc1C(F)(F)F (stereo in doubt) [Compound 157, rel-5-((2S,3R,4R,5S)-3-(2-methoxy-3-(trifluoromethyl)phenyl)-4,5-dimethyl-5-(trifluoromethyl)tetrahydrofuran-2-carboxamido)picolinamide] | ≥ 1000 nM |
| COc1c([C@H]2[C@H](C(=O)Nc3ccnc(N4C(=O)CNC[C@@H]4C)c3)O[C@@](C)(C(F)(F)F)[C@H]2C)ccc(F)c1F [Compound 479, (2R,3S,4S,5R)-3-(3,4-difluoro-2-methoxyphenyl)-4,5-dimethyl-N-(2-((S)-2-methyl-6-oxopiperazin-1-yl)pyridin-4-yl)-5-(trifluoromethyl)tetrahydrofuran-2-carboxamide] | 10 to 100 nM |
| COc1c([C@H]2[C@H](C(=O)Nc3cc(N4C(=O)CN(C)C[C@H]4C)ncn3)O[C@@](C)(C(F)(F)F)[C@H]2C)ccc(F)c1F [Compound 513] | 10 to 100 nM |
| COc1c([C@H]2[C@H](C(=O)Nc3ccc(C(N)=O)nc3)O[C@@](C)(C(F)(F)F)[C@H]2C)ccc(F)c1F [Compound 1, 5-((2R,3S,4S,5R)-3-(3,4-difluoro-2-methoxyphenyl)-4,5-dimethyl-5-(trifluoromethyl)tetrahydrofuran-2-carboxamido)picolinamide] | < 10 nM |
| COc1c(C2C(C(=O)Nc3ccnc(S(C)(=N)=O)c3)OC(C)(C(F)(F)F)C2C)ccc(F)c1F (single isomer, unassigned) [Compound 53, 3-(3,4-difluoro-2-methoxy-phenyl)-4,5-dimethyl-N-[2-(methylsulfonimidoyl)-4-pyridyl]-5-(trifluoromethyl)tetrahydrofuran-2-carboxamide] | 100 to 1000 nM |
| Cc1nn(CCO)cc1NC(=O)[C@H]1O[C@](C)(C(F)(F)F)[C@H](C)[C@@H]1c1ccc(F)c(F)c1OC(F)F (single isomer, unassigned) [Compound 75] | ≥ 1000 nM |
| CN=S(C)(=O)c1cc(NC(=O)[C@H]2O[C@](C)(C(F)(F)F)[C@H](C)[C@@H]2c2ccc(F)c(F)c2OC)ccn1 (relative stereo) [Compound 527, rel-(2S,3R,4R,5S)-3-(3,4-difluoro-2-methoxyphenyl)-N-(2-(N,S-dimethylsulfonimidoyl)pyridin-4-yl)-4,5-dimethyl-5-(trifluoromethyl)tetrahydrofuran-2-carboxamide] | 100 to 1000 nM |
| COc1c([C@@H]2[C@H](C)[C@H](C)O[C@H]2C(=O)Nc2ccnc(C(O)CO)c2)ccc(F)c1F (relative stereo) [Compound 718, rel-(2R,3S,4S,5S)-3-(3,4-difluoro-2-methoxyphenyl)-N-(2-(1,2-dihydroxyethyl)pyridin-4-yl)-4,5-dimethyltetrahydrofuran-2-carboxamide] | 100 to 1000 nM |
| CCOc1c([C@H]2[C@H](C(=O)Nc3ccn(C)c(=O)c3)O[C@@](C)(C(F)(F)F)[C@H]2C)ccc(F)c1F (stereo in doubt) [Compound 103, rel-(2R,3S,4S,5R)-3-(2-ethoxy-3,4-difluorophenyl)-4,5-dimethyl-N-(1-methyl-2-oxo-1,2-dihydropyridin-4-yl)-5-(trifluoromethyl)tetrahydrofuran-2-carboxamide] | < 10 nM |
| COc1c([C@H]2[C@H](C(=O)Nc3ccnc(C(O)CO)c3)O[C@@](C)(C(F)(F)F)[C@H]2C)ccc(F)c1C (single isomer, unassigned) [Compound 135] | < 10 nM |
| Cc1nnn2ccc(NC(=O)[C@@H]3O[C@@](C)(C(F)(F)F)[C@@H](C)[C@H]3c3ccc(F)c(F)c3OCCO)cc12 [Compound 574, (2R,3S,4S,5R)-3-(3,4-difluoro-2-(2-hydroxyethoxy)phenyl)-4,5-dimethyl-N-(3-methyl-[1,2,3]triazolo[1,5-a]pyridin-5-yl)-5-(trifluoromethyl)tetrahydrofuran-2-carboxamide] | 10 to 100 nM |
| COc1c([C@H]2[C@H](C(=O)Nc3csnc3C)O[C@@](C)(C(F)(F)F)[C@H]2C)ccc(F)c1F [Compound 327, (2R,3S,4S,5R)-3-(3,4-difluoro-2-methoxyphenyl)-4,5-dimethyl-N-(3-methylisothiazol-4-yl)-5-(trifluoromethyl)-tetrahydrofuran-2-carboxamide] | < 10 nM |
| CNC1CCN(c2cc(NC(=O)[C@@H]3O[C@@](C)(C(F)(F)F)[C@@H](C)[C@H]3c3ccc(F)c(F)c3OC)ccn2)C1=O (single isomer, unassigned) [Compound 501, rel-(2R*,3S*,4S*,5R*)-3-(3,4-difluoro-2-methoxyphenyl)-4,5-dimethyl-N-(2-(3-(methylamino)-2-oxopyrrolidin-1-yl)pyridin-4-yl)-5-(trifluoromethyl)tetrahydrofuran-2-carboxamide] | 10 to 100 nM |
| COc1c([C@H]2[C@H](C(=O)Nc3ccnc(C4(N)CCOC4)c3)O[C@@](C)(C(F)(F)F)[C@H]2C)ccc(F)c1F (single isomer, unassigned) [Compound 346, rel-(2R*,3S*,4S*,5R*)-N-(2-(3-aminotetrahydrofuran-3-yl)pyridin-4-yl)-3-(3,4-difluoro-2-methoxyphenyl)-4,5-dimethyl-5-(trifluoromethyl)-tetrahydrofuran-2-carboxamide] | < 10 nM |
| Cc1nocc1NC(=O)[C@@H]1O[C@@](C)(C(F)(F)F)[C@@H](C)[C@H]1c1ccc(F)c(F)c1OCCNC1COC1 [Compound 631, (2R,3S,4S,5R)-3-(3,4-difluoro-2-(2-(oxetan-3-ylamino)ethoxy)phenyl)-4,5-dimethyl-N-(3-methylisoxazol-4-yl)-5-(trifluoromethyl)tetrahydrofuran-2-carboxamide] | 10 to 100 nM |
| COc1c([C@H]2[C@H](C(=O)Nc3ccnc(C(C)(N)CO)c3)O[C@@](C)(C(F)(F)F)[C@H]2C)ccc(F)c1F (single isomer, unassigned) [Compound 358, rel-(2R*,3S*,4S*,5R*)-N-(2-(2-amino-1-hydroxypropan-2-yl)pyridin-4-yl)-3-(3,4-difluoro-2-methoxyphenyl)-4,5-dimethyl-5-(trifluoromethyl)-tetrahydrofuran-2-carboxamide] | < 10 nM |
| CNC(=O)COc1c([C@H]2[C@H](C(=O)Nc3cn(C(F)F)nc3C)O[C@@](C)(C(F)(F)F)[C@H]2C)ccc(F)c1F [Compound 607, (2R,3S,4S,5R)-3-(3,4-difluoro-2-(2-(methylamino)-2-oxoethoxy)phenyl)-N-(1-(difluoromethyl)-3-methyl-1H-pyrazol-4-yl)-4,5-dimethyl-5-(trifluoromethyl)tetrahydrofuran-2-carboxamide] | 10 to 100 nM |
| Cc1nn(C(F)F)cc1NC(=O)[C@@H]1O[C@@](C)(C(F)(F)F)[C@@H](C)[C@H]1c1ccc(F)c(F)c1OCCN1CCOCC1 [Compound 591, (2R,3S,4S,5R)-3-(3,4-difluoro-2-(2-morpholinoethoxy)phenyl)-N-(1-(difluoromethyl)-3-methyl-1H-pyrazol-4-yl)-4,5-dimethyl-5-(trifluoromethyl)tetrahydrofuran-2-carboxamide] | 10 to 100 nM |
